From patent US20240230620A1, “CURRENT AND […]” (National Taiwan University, priority 2023, published 2024)
Where two headings read alike, the source gives them in different places.

Key:
Gα subunit = conditions: fluorescence
Experimental: The intrinsic tryptophan in the switch-II region serves as a fluorescent probe for examining the activity of Ga subunit. In the AlF4^− dependent activation assay, the AlF4^− bound to GDP mimics the transition state of GTP hydrolysis, stimulating the conformational change of the switch-II region and enhancing the fluorescence quantum yields of intrinsic Trp. This principle was also applied to GDP/GTP auto-exchange, but it was conducted using of GTPγS, a non-hydrolyzable GTP analog. In the time-course of Trp fluorescence measurement, the excitation and emission wavelengths were 280 and 340 nm, respectively, and both slits are 10 nm. For AlF4^− dependent activation assay, 20 μL 20 μM Ga protein was first added into a cuvette filled with 1.5 mL buffer G without BME and PMSF at 50 s. Then 40 μL 500 mM NaF and 20 μL 10 mM AlCl3 were added simultaneously at 100 s. For GDP/GTP auto-exchange, the experiments were conducted as described above using 1 μM GTPγS instead of AlF4^−.
The effectiveness of Gα inactivation using EDTA was analyzed by fluorescence (FIG. 23(A)).

AtGPA1 [1] = biological target: T1, AtGPA1 (Arabidopsis thaliana, UniProt P18064); test: GTPγS saturation binding analysis of AtGPA1 (photocurrent and fluorescence); conditions: percent of maximum fitted to a hyperbola, preliminary test
T1 sequence (P18064 1-383): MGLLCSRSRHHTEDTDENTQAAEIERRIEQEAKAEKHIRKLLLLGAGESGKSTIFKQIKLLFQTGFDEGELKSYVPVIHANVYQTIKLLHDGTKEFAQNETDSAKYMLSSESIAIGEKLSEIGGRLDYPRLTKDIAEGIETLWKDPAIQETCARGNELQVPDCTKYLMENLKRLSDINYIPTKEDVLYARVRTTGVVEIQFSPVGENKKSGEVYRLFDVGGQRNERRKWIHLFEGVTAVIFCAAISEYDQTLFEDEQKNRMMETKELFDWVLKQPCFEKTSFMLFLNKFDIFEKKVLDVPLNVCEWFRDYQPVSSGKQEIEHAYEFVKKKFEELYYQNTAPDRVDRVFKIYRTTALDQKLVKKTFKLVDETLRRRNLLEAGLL
Experimental: The photo-induced-voltage-generating solution chamber was filled with 20 mg/mL HEBR solution in the dual chamber format. The sample to be tested was added to the sample chamber at a volume of 100-150 μL. The photo-induced-voltage-generating solution chamber was illuminated by a 10-Hz, 532-nm flash laser (Nd-YAG laser, 6 ns pulse, pump energy 21 J) via a central control unit (Raspberry Pi 400) to generate the alternating photocurrent. The data recording system was identical to steady-state photocurrent measurement. Each data was collected at a single trigger event. The laser was triggered at 0 s and stopped at 40 s with each 5 s pre-trigger and post-illumination. Then, the raw data were recorded in a .csv file and processed by the Python code. The processed data were exported to an excel file for further analysis.
After the successful measurement of the interaction of Gα with its ligand, the present device was extended to measure the KD of Gα and its ligands. In preliminary test, the plant Arabidopsis thaliana Gα AtGPA1 and a non-hydrolyzable GTP analog GTPγS were adopted. […] The AtGPA1 was purified and analyzed the activity using the identical method in mammalian Gα purification.
Referring to FIG. 24, to calculate the KD of AtGPA1 and GTPγS, both photocurrent and fluorescence were measured. […]

AtGPA1 [2] = biological target: T1, AtGPA1; conditions: derived from radioactive GTPγS assay; read-out: KD of AtGPA1 and GTPγS, previous study; cited from earlier work

Compound | Gα subunit inactivation (Gα subunit; 20 μM Gα subunit at 100 mM EDTA) | reduction of Gα subunit activity (Gα subunit; 20 μM Gα subunit in 10 mM EDTA) | Kd (AtGPA1 [1]) | Kd (AtGPA1 [2])
O=C(O)CN(CCN(CC(=O)O)CC(=O)O)CC(=O)O [EDTA] | almost inactivated | more than 60% |  | 
Nc1nc2c(ncn2[C@@H]2O[C@H](COP(=O)(O)OP(=O)(O)OP(O)(O)=S)[C@@H](O)[C@H]2O)c(=O)[nH]1 [GTPγS] |  |  | ~1.5 nM | 0.8 nM
